# Experimental data from patent US7468432B2, “Cobalamin conjugates useful as antitumor agents” (Mayo Foundation for Medical Education and Research, priority 1999, dated 2008).
# Key:
# [1] = system: cells; conditions: in vitro neutron radiation of cells grown in the presence of compound; cited from earlier work
# [2] = system: African green monkey (Vero) cells; conditions: concentration level of 1600 μM; cited from earlier work
# [3] = system: transcobalamin proteins; assay: modified unsaturated Vitamin B12 binding capacity (UBBC) assay; parameters: species or system human; conditions: 0.4 ml patient serum treated with 4 μL analog (10 μg per ml normal saline), 20 minutes at room temperature; blocking of Co-57 cyanocobalamin binding; 5 patients, n=10
# Experimental: In vitro biological activity of the carborane cyanocobalamin analogs. To assess the in vitro binding of the carborane cyanocobalamin (Example 1, CCC) and DTPA-aminopropylcobalamin (Example 3, DAPC) analogs to the transcobalamin proteins, the unsaturated Vitamin B12 binding capacity (UBBC) assay (see D. A. Collins and H. P. C. Hogenkamp, J. Nuclear Medicine, 1997, 38, 717-723) was performed. Serum was obtained from 5 patients being evaluated for pernicious anemia at the Mayo Clinic. The patients' serum first underwent a routine clinical UBBC as previously described. To determine if the CCC and DAPC analogs would inhibit Co-57 cyanocobalamin from binding to the transcobalamin proteins, the excess serum from the 5 patients underwent modified UBBC.
# Specifically, under dim light, 0.4 ml serum was treated with 4 μL (concentration 10 μg CCC per ml normal saline) of the 2 CCC analogs, carborane-d-cyano-cobalamin and carborane-b-cyanocobalamin, and DAPC. The analogs were incubated for 20 minutes at room temperature with the patient's serum. Both the clinical run and the analog treated samples were assayed for UBBC as usual.
# The percent PB of the analogs to transcobalamin protein was calculated as follows (PB=100−CCCUBBC cpm/clinical UBBC cpm×100). […]
average percent binding (PB) of the analogs to transcobalamin protein [3] [%],Compound,biological effect equivalent to a concentration of 10B [1] [μg ^10B/g],cytotoxicity [2]
,O=c1[nH]c(=O)n([C@H]2C[C@H](O)[C@@H](CO)O2)cc1B(O)O [5-dihydroloxyboryl-2′-deoxyuridine],~6,not cytotoxic
98.21,DTPA-aminopropylcarbalamin [DAPC],,
